The source of these data is patent US20240417405A1, “Substituted Spiro Derivatives” (Janssen Pharmaceutica NV, priority 2021, published 2024).

The subject of assay [1] is KO-52 cells. The assay is described as follows: Proliferation assay, spheroid-like growth, KO-52 (MLL wildtype control cell line). The class given is cell-based, human. The settings on record: Homo sapiens, 192 h, KO-52 control cells, 8 days, confluence as measure of spheroid size; read-out: spheroid assay_OneTime KO-52 IC50. How it is done:
The anti-proliferative effect of menin/MLL protein/protein interaction inhibitor test compounds was assessed in human leukemia cell lines. The cell line MOLM14 harbors a MLL translocation and expresses the MLL fusion proteins MLL-AF9, respectively, as well as the wildtype protein from the second allele. […] KO-52 was used as a control cell line containing two MLL (KMT2A) wildtype alleles in order to exclude compounds that display general cytotoxic effects.
MOLM14 cells were cultured in RPMI-1640 (Sigma Aldrich) supplemented with 10% heat-inactivated fetal bovine serum (HyClone), 2 mM L-glutamine (Sigma Aldrich) and 50 μg/ml gentamycin (Gibco). KO-52 cell lines were propagated in alpha-MEM (Sigma Aldrich) supplemented with 20% heat-inactivated fetal bovine serum (HyClone), 2 mM L-glutamine (Sigma Aldrich) and 50 μg/ml gentamycin (Gibco).
In order to assess the anti-proliferative effects, 200 MOLM14 cells, or 300 KO-52 cells were seeded in 200 μl media per well in 96-well round bottom, ultra-low attachment plates (Costar, catalogue number 7007). Cell seeding numbers were chosen based on growth curves to ensure linear growth throughout the experiment. Test compounds were added at different concentrations and the DMSO content was normalized to 0.3%. Cells were incubated for 8 days at 37° C. and 5% CO2. Spheroid like growth was measured in real-time by live-cell imaging (IncuCyteZOOM, Essenbio, 4× objective) acquiring images at day 8. Confluence (%) as a measure of spheroid size was determined using an integrated analysis tool.
In order to determine the effect of the test compounds over time, the confluence in each well as a measure of spheroid size, was calculated. Confluence of the highest dose of a reference compound was used as baseline for the LC (Low control) and the confluence of DMSO treated cells was used as 0% cytotoxicity (High Control, HC).
Absolute IC50 values were calculated as percent change in confluence as follows:
LC=Low Control: cells treated with e.g. 1 μM of the cytotoxic agent staurosporin, or e.g. cells treated with a high concentration of an alternative reference compound
GraphPad Prism (version 7.00) was used to calculate the IC50. Dose-response equation was used for the plot of % Effect vs Log 10 compound concentration with a variable slope and fixing the maximum to 100% and the minimum to 0%.

For assay [2], the system named is MOLM14 cells. The experiment in a line: Proliferation assay, spheroid-like growth, MOLM14 (MLL-AF9 rearranged). It is filed as cell-based, human. The settings on record: Homo sapiens, MOLM-14, 192 h, 8 days, confluence as measure of spheroid size, read-out: spheroid assay_OneTime MOLM14 IC50. An outline of the steps:
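200 MOLM14 or 300 KO-52 cells/well, ultra-low attachment, compound dilutions, DMSO 0.3%; 8 d, 37 °C, 5% CO2. Read: live-cell imaging confluence (spheroid size) day 8. Absolute IC50, min 0%/max 100% fixed, variable slope.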

Assay [3] addresses T1, menin/MLL (terbium chelate-labeled menin, FITC-MBM1 peptide) (Homo sapiens, UniProt O00255, T541A).
T1 construct: Menin (a.a 1-610-6xhis tag)
T1 sequence (O00255 with tags, fused parts or gaps T541A): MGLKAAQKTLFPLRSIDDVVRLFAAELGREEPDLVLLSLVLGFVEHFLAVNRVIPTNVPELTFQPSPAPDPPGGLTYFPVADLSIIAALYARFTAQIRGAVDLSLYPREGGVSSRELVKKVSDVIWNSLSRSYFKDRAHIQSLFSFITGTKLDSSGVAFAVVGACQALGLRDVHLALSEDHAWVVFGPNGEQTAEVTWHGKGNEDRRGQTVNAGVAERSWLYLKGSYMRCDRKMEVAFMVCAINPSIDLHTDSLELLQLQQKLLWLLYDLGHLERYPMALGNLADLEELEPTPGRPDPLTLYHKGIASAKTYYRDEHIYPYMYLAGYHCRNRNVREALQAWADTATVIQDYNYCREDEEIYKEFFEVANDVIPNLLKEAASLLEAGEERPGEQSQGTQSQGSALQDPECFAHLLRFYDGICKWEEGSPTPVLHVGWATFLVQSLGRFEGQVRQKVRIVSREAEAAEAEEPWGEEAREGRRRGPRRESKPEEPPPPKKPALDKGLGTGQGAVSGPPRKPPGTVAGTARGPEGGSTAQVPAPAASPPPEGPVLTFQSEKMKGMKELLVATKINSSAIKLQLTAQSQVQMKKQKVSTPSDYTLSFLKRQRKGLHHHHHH
The experiment in a line: Menin/MLL homogenous time-resolved fluorescence (HTRF) assay. The note with it: 30 min incubation. The class given is binding. The method, boiled down: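 Tb-cryptate menin (1-610, 6xHis) 200 pM + cmpd, 30 min RT; + FITC-MBM1 75 nM, 15 min RT. 40 mM Tris pH 7.5, 50 mM NaCl, 1 mM DTT, 0.05% Pluronic F-127, 0.5% DMSO. HTRF 520/490; 11-pt 4-fold from 10 μM; IC50 fit.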
(In general: TR-FRET usually uses a lanthanide donor and a delayed reading to cut background.)

pIC50: −log10 of the molar value. Some results are limits rather than exact numbers.

A word on the pIC50: it is −log10 of the IC50, conventionally taken in molar units. `CC(C)[C@H](C1CCN(CC2COC2)CC1)N1CC2(CCN(c3ncnnc3Oc3ccc(F)cc3-c3cncnc3C3CC3)C2)C1` (single isomer, unassigned) [Compound 5]: the pIC50 in assay [1] was 5.03; in assay [2], 6.92; in assay [3], 9.70.
Regarding `CC(C)C([C@H]1C[C@@H](N(C)C)C1)N1CC2(CCN(c3ncnnc3Oc3ccc(F)cc3-c3cncnc3C3CC3)C2)C1` (single isomer, unassigned) [Compound 7], the negative-log IC50 (pIC50) in assay [1] was 5.30; in assay [2] it was 8.40; in assay [3], 10.00.
In the case of `CC(C)C([C@H]1C[C@H](N(C)C)C1)N1CC2(CCN(c3ncnnc3Oc3ccc(F)cc3-c3cncnc3C3CC3)C2)C1` (single isomer, unassigned) [Compound 8], the pIC50 in assay [1] was 4.99; in assay [2], 7.28; in assay [3], 9.52.
The like results for `CC(C)[C@H]([C@H]1C[C@@H](N2CCC(S(C)(=O)=O)CC2)C1)N1CC2(CCN(c3ncnnc3Oc3ccc(F)cc3-c3cncnc3C3CC3)C2)C1` (single isomer, unassigned) [Compound 9] were, in that order, 5.15, 7.68 and 10.00.
For `CC(C)[C@H]([C@H]1C[C@@H](N2CCC(O)C(F)C2)C1)N1CC2(CCN(c3ncnnc3Oc3ccc(F)cc3-c3cncnc3C3CC3)C2)C1` (single isomer, unassigned) [Compound 10], in that order: 5.29, 7.77 and 9.40.
Take `CC(C)[C@H]([C@H]1C[C@@H](N2C[C@H]3COC[C@H]3C2)C1)N1CC2(CCN(c3ncnnc3Oc3ccc(F)cc3-c3cncnc3C3CC3)C2)C1` (single isomer, unassigned) [Compound 14]: the results for the pIC50 in assay [1], in assay [2] and in assay [3] were 5.68, 8.70 and 10.00, respectively.
For `COC1CCN([C@H]2C[C@@H](C(C(C)C)N3CC4(CCN(c5ncnnc5Oc5ccc(F)cc5-c5cncnc5C5CC5)C4)C3)C2)CC1` (single isomer, unassigned) [Compound 16], in that order: 5.73, 8.40 and 10.00.
For `CC(C)[C@H]([C@H]1C[C@@H](N2CCCC2)C1)N1CC2(CCN(c3ncnnc3Oc3ccc(F)cc3-c3cncnc3C3CC3)C2)C1` (single isomer, unassigned) [Compound 18], in that order: 6.09, 8.70 and 10.00.
For `CC(C)C([C@H]1C[C@@H](N2CC3(COC3)C2)C1)N1CC2(CCN(c3ncnnc3Oc3ccc(F)cc3-c3cncnc3C3CC3)C2)C1` (single isomer, unassigned) [Compound 20], in that order: 5.37, 8.30 and 10.00.
Turning to `CC(C)C([C@H]1C[C@H](N2CC3(COC3)C2)C1)N1CC2(CCN(c3ncnnc3Oc3ccc(F)cc3-c3cncnc3C3CC3)C2)C1` (single isomer, unassigned) [Compound 21], the pIC50 in assay [1] was 5.34; in assay [2] it was 7.28; in assay [3], 10.00.
With `CC(C)[C@H]([C@H]1C[C@@H](N2CCC(O)CC2)C1)N1CC2(CCN(c3ncnnc3Oc3ccc(F)cc3-c3cncnc3C3CC3)C2)C1` (single isomer, unassigned) [Compound 22], the pIC50 in assay [1] was 4.97; in assay [2], 8.52; in assay [3], 10.00.
For `CC(C)[C@@H]([C@H]1C[C@@H](N2CCC(S(C)(=O)=O)CC2)C1)N1CC2(CCN(c3ncnnc3Oc3ccc(F)cc3-c3cccnc3C3CC3)C2)C1` (single isomer, unassigned) [Compound 23], in that order: 5.97, 8.05 and 9.52.
`CC(C)[C@H]([C@H]1C[C@@H](N2CCC(S(C)(=O)=O)CC2)C1)N1CC2(CCN(c3ncnnc3Oc3ccc(F)cc3-c3ncccc3C3CC3)C2)C1` (single isomer, unassigned) [Compound 25]: the pIC50 is 5.25 in assay [1], 7.07 in assay [2] and 10.00 in assay [3].
For `CC(C)[C@@H]([C@H]1C[C@@H](N2CCC(S(C)(=O)=O)CC2)C1)N1CC2(CCN(c3ncnnc3Oc3ccc(F)cc3-c3ncccc3C3CC3)C2)C1` (single isomer, unassigned) [Compound 26], in that order: less than 4.82, less than 6.03 and 8.21.
For `CC(C)[C@H]([C@H]1C[C@@H](NC(=O)C2CC2)C1)N1CC2(CCN(c3ncnnc3Oc3ccc(F)cc3-c3ncccc3C3CC3)C2)C1` (single isomer, unassigned) [Compound 27], in that order: 5.25, 7.44 and 10.00.
For `CC(C)[C@@H](C1CCN(CC2COC2)CC1)N1CC2(CCN(c3ncnnc3Oc3ccc(F)cc3-c3cncnc3C3CC3)C2)C1` (single isomer, unassigned) [Compound 29], in that order: less than 4.82, 6.66 and 8.74.
For `CC(C)[C@H]([C@H]1C[C@@H](N2CCC(F)C(O)C2)C1)N1CC2(CCN(c3ncnnc3Oc3ccc(F)cc3-c3cncnc3C3CC3)C2)C1` (single isomer, unassigned) [Compound 30], the figures for the negative-log IC50 (pIC50) in assay [1], in assay [2] and in assay [3] were 5.59, 7.54 and 9.52, respectively.
For `CC(C)[C@H]([C@H]1C[C@H](N2CCC(F)C(O)C2)C1)N1CC2(CCN(c3ncnnc3Oc3ccc(F)cc3-c3cncnc3C3CC3)C2)C1` (single isomer, unassigned) [Compound 31], in that order: 5.62, 8.15 and 9.52.
With `CC(C)[C@H]([C@H]1C[C@H](N2CCC(O)C(F)C2)C1)N1CC2(CCN(c3ncnnc3Oc3ccc(F)cc3-c3cncnc3C3CC3)C2)C1` (single isomer, unassigned) [Compound 33], the figures for the negative-log IC50 (pIC50) in assay [1], in assay [2] and in assay [3] were 5.60, 8.15 and 9.52, respectively.
The like results for `CC(=O)N1CCN([C@H]2C[C@@H]([C@@H](C(C)C)N3CC4(CCN(c5ncnnc5Oc5ccc(F)cc5-c5cncnc5C5CC5)C4)C3)C2)CC1` (single isomer, unassigned) [Compound 34] were, in that order, 5.29, 7.44 and 9.30.
For `CC(=O)N1CCN([C@H]2C[C@H]([C@@H](C(C)C)N3CC4(CCN(c5ncnnc5Oc5ccc(F)cc5-c5cncnc5C5CC5)C4)C3)C2)CC1` (single isomer, unassigned) [Compound 35], in that order: less than 4.82, 6.47 and 8.89.
